Results from the kinase profiling compilation of Christmann-Franck et al. (2016).

Target: TESK1 (human) (UniProt Q15569)
Assay: KINOMEscan competition binding
Settings: compound 10.0 µM

Chain of TESK1 (human) (Q15569 whole entry, looked up): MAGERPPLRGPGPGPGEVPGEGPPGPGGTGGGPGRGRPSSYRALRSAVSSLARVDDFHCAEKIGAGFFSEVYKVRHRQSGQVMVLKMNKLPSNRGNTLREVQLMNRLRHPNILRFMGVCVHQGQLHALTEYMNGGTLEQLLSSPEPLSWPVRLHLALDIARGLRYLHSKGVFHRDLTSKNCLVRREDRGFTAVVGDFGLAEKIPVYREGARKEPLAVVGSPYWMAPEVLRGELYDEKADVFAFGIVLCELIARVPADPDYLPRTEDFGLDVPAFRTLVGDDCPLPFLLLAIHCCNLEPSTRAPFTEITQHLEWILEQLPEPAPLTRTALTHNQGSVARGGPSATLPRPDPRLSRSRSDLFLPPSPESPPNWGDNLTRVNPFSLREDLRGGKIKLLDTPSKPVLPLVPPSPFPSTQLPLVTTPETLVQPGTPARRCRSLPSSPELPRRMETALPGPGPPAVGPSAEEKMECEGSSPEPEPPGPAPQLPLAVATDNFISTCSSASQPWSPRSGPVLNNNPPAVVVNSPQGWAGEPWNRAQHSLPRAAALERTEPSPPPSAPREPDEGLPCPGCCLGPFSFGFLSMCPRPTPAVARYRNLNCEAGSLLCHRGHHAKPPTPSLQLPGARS

SMILES | kinase still bound, per cent of control [%]
CCN1CCN(Cc2ccc(NC(=O)c3ccc(C)c(/C=C/c4cnc(Nc5cc(N6CCNCC6)nc(C)n5)cn4)c3)cc2C(F)(F)F)CC1 | 23
COc1cc(N2CCC(N3CCN(C)CC3)CC2)ccc1Nc1ncc(Cl)c(Nc2ccccc2S(=O)(=O)C(C)C)n1 | 40
CCOc1cc(N2CCC(N3CCCCC3)CC2)ccc1Nc1nc(Nc2ccccc2S(=O)(=O)C(C)C)c2cn[nH]c2n1 | 100

System: FLT3 (human), P36888 [ITD]
Assay: KINOMEscan competition binding
Settings: compound 10.0 µM

Chain of FLT3 (human), P36888 [ITD] (P36888 whole entry, looked up, change not shown): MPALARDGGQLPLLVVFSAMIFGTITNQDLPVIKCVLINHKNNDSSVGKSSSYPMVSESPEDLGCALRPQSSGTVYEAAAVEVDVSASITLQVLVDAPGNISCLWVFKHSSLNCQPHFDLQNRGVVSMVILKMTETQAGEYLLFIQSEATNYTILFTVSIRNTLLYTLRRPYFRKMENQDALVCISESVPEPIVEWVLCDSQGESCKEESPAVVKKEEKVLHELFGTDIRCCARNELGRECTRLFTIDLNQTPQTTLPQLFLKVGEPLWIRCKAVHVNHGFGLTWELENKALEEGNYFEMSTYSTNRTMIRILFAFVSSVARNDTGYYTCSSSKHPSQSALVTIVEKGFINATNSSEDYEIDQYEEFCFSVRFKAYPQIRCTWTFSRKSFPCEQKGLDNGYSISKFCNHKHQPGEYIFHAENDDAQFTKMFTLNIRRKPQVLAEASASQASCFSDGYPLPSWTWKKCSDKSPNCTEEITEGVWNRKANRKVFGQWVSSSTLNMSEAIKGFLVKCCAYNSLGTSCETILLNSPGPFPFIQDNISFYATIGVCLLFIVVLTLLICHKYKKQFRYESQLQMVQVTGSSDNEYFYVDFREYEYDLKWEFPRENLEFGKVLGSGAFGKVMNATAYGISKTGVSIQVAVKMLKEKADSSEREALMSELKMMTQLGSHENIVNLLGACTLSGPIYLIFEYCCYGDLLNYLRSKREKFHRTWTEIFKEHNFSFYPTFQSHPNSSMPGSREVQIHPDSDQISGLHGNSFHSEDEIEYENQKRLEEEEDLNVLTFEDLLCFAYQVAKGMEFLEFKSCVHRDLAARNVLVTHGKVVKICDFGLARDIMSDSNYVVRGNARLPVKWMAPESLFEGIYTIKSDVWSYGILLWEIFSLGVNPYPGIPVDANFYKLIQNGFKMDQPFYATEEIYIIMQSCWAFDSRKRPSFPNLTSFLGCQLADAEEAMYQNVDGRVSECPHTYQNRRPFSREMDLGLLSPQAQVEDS

SMILES | kinase still bound, per cent of control [%]
CCN1CCN(Cc2ccc(NC(=O)c3ccc(C)c(/C=C/c4cnc(Nc5cc(N6CCNCC6)nc(C)n5)cn4)c3)cc2C(F)(F)F)CC1 | 5.6
CCOc1cc(N2CCC(N3CCCCC3)CC2)ccc1Nc1nc(Nc2ccccc2S(=O)(=O)C(C)C)c2cn[nH]c2n1 | 100
CCN1CCN(Cc2ccc(NC(=O)c3ccc(C)c(Oc4ccnc5[nH]ccc45)c3)cc2C(F)(F)F)CC1 | 0.7

Target: MAPK15 (human) (UniProt Q8TD08)
Assay: KINOMEscan competition binding
Settings: compound 10.0 µM

Chain of MAPK15 (human) (Q8TD08 whole entry, looked up): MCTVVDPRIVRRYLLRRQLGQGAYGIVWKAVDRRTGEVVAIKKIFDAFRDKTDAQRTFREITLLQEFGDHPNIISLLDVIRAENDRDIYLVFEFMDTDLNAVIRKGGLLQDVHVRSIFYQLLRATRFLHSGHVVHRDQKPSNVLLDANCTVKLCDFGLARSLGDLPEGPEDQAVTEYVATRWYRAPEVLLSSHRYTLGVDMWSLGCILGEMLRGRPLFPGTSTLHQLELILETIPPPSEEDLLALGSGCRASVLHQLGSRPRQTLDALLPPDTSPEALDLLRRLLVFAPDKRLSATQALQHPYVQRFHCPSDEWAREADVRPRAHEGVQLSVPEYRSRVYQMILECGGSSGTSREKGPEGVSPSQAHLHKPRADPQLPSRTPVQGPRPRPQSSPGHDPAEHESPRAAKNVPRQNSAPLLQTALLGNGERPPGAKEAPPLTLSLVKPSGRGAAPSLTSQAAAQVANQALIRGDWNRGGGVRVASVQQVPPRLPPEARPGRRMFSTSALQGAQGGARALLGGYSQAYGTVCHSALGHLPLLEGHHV

SMILES | kinase still bound, per cent of control [%]
CCN1CCN(Cc2ccc(NC(=O)c3ccc(C)c(/C=C/c4cnc(Nc5cc(N6CCNCC6)nc(C)n5)cn4)c3)cc2C(F)(F)F)CC1 | 100
COc1cc(N2CCC(N3CCN(C)CC3)CC2)ccc1Nc1ncc(Cl)c(Nc2ccccc2S(=O)(=O)C(C)C)n1 | 0.25
CCOc1cc(N2CCC(N3CCCCC3)CC2)ccc1Nc1nc(Nc2ccccc2S(=O)(=O)C(C)C)c2cn[nH]c2n1 | 100

Target: MARK4 (human) (UniProt Q96L34)
Assay: KINOMEscan competition binding
Settings: compound 10.0 µM

Chain of MARK4 (human) (Q96L34 whole entry, looked up): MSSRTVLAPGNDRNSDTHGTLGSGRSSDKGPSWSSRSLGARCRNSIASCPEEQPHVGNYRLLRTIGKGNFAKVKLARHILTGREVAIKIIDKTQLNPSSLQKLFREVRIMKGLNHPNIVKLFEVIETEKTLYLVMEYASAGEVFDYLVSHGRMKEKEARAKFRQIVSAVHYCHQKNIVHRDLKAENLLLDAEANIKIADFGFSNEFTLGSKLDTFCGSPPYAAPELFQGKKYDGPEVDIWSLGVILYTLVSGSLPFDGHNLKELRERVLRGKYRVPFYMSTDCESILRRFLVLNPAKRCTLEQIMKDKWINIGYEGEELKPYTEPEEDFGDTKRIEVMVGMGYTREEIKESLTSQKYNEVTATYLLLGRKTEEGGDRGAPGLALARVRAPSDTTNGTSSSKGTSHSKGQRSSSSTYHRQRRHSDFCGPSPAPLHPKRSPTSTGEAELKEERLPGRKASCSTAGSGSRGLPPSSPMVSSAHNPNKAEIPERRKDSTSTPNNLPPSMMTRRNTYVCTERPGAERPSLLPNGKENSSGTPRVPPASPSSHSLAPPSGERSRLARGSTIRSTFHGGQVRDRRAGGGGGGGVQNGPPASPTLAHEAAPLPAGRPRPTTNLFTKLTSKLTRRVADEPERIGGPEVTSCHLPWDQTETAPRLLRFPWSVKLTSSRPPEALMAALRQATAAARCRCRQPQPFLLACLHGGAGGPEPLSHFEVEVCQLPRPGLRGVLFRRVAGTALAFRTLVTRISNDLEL

SMILES | kinase still bound, per cent of control [%]
CCN1CCN(Cc2ccc(NC(=O)c3ccc(C)c(/C=C/c4cnc(Nc5cc(N6CCNCC6)nc(C)n5)cn4)c3)cc2C(F)(F)F)CC1 | 100
COc1cc(N2CCC(N3CCN(C)CC3)CC2)ccc1Nc1ncc(Cl)c(Nc2ccccc2S(=O)(=O)C(C)C)n1 | 0
CCOc1cc(N2CCC(N3CCCCC3)CC2)ccc1Nc1nc(Nc2ccccc2S(=O)(=O)C(C)C)c2cn[nH]c2n1 | 71

Target: PKN1 (human) (UniProt Q16512)
Assay: KINOMEscan competition binding
Settings: compound 10.0 µM

Chain of PKN1 (human) (Q16512 whole entry, looked up): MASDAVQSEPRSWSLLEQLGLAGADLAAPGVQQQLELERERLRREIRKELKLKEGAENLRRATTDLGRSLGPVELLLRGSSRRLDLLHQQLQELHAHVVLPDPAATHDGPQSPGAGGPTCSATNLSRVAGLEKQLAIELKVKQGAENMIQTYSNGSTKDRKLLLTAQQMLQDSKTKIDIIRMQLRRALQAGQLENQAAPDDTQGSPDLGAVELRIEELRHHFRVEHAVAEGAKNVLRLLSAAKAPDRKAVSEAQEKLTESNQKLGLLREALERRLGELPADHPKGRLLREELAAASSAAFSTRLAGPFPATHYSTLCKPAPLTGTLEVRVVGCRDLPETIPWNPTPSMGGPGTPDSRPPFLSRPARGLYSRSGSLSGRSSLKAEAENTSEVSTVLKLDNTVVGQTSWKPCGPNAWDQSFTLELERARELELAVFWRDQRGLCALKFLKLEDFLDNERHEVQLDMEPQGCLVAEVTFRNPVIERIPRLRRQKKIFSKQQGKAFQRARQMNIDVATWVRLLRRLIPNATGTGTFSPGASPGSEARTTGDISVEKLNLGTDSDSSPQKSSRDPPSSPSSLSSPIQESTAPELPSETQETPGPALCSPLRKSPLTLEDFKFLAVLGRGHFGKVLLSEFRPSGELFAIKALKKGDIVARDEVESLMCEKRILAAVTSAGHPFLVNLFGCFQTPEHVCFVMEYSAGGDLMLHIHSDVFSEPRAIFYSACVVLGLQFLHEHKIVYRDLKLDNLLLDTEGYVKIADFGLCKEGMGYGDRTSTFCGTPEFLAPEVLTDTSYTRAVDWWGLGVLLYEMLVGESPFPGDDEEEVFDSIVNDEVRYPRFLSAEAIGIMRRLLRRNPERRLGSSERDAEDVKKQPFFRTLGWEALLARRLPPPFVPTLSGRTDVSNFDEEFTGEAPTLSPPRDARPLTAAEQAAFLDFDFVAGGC

SMILES | kinase still bound, per cent of control [%]
CCN1CCN(Cc2ccc(NC(=O)c3ccc(C)c(/C=C/c4cnc(Nc5cc(N6CCNCC6)nc(C)n5)cn4)c3)cc2C(F)(F)F)CC1 | 100
COc1cc(N2CCC(N3CCN(C)CC3)CC2)ccc1Nc1ncc(Cl)c(Nc2ccccc2S(=O)(=O)C(C)C)n1 | 0.5
CCOc1cc(N2CCC(N3CCCCC3)CC2)ccc1Nc1nc(Nc2ccccc2S(=O)(=O)C(C)C)c2cn[nH]c2n1 | 100

Target: DDR1 (human) (UniProt Q08345)
Assay: KINOMEscan competition binding
Settings: compound 10.0 µM

SMILES | kinase still bound, per cent of control [%]
CCN1CCN(Cc2ccc(NC(=O)c3ccc(C)c(/C=C/c4cnc(Nc5cc(N6CCNCC6)nc(C)n5)cn4)c3)cc2C(F)(F)F)CC1 | 0
COc1cc(N2CCC(N3CCN(C)CC3)CC2)ccc1Nc1ncc(Cl)c(Nc2ccccc2S(=O)(=O)C(C)C)n1 | 0.05
CCOc1cc(N2CCC(N3CCCCC3)CC2)ccc1Nc1nc(Nc2ccccc2S(=O)(=O)C(C)C)c2cn[nH]c2n1 | 100
CCN1CCN(Cc2ccc(NC(=O)c3ccc(C)c(Oc4ccnc5[nH]ccc45)c3)cc2C(F)(F)F)CC1 | 0.05

Target: CDK2 (human) (UniProt P24941)
Assay: KINOMEscan competition binding
Settings: compound 10.0 µM

SMILES | kinase still bound, per cent of control [%]
CCN1CCN(Cc2ccc(NC(=O)c3ccc(C)c(/C=C/c4cnc(Nc5cc(N6CCNCC6)nc(C)n5)cn4)c3)cc2C(F)(F)F)CC1 | 100
COc1cc(N2CCC(N3CCN(C)CC3)CC2)ccc1Nc1ncc(Cl)c(Nc2ccccc2S(=O)(=O)C(C)C)n1 | 24
CCOc1cc(N2CCC(N3CCCCC3)CC2)ccc1Nc1nc(Nc2ccccc2S(=O)(=O)C(C)C)c2cn[nH]c2n1 | 100
CCN1CCN(Cc2ccc(NC(=O)c3ccc(C)c(Oc4ccnc5[nH]ccc45)c3)cc2C(F)(F)F)CC1 | 11

Target: KDR (human) (UniProt P35968)
Assay: KINOMEscan competition binding
Settings: compound 10.0 µM

SMILES | kinase still bound, per cent of control [%]
CCN1CCN(Cc2ccc(NC(=O)c3ccc(C)c(/C=C/c4cnc(Nc5cc(N6CCNCC6)nc(C)n5)cn4)c3)cc2C(F)(F)F)CC1 | 37
COc1cc(N2CCC(N3CCN(C)CC3)CC2)ccc1Nc1ncc(Cl)c(Nc2ccccc2S(=O)(=O)C(C)C)n1 | 2.2
CCOc1cc(N2CCC(N3CCCCC3)CC2)ccc1Nc1nc(Nc2ccccc2S(=O)(=O)C(C)C)c2cn[nH]c2n1 | 100
CCN1CCN(Cc2ccc(NC(=O)c3ccc(C)c(Oc4ccnc5[nH]ccc45)c3)cc2C(F)(F)F)CC1 | 1.5

Target: MAP2K3 (human) (UniProt P46734)
Assay: KINOMEscan competition binding
Settings: compound 10.0 µM

Chain of MAP2K3 (human) (P46734 whole entry, looked up): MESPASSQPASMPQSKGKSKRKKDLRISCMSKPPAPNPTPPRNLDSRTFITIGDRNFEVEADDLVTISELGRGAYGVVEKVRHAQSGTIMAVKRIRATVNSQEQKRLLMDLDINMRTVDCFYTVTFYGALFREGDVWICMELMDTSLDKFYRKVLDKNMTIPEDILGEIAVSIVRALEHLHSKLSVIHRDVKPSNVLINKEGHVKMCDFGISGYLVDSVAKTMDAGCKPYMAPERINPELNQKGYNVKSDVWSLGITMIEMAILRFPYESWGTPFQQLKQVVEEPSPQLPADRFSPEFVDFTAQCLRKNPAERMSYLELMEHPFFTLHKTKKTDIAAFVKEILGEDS

SMILES | kinase still bound, per cent of control [%]
CCN1CCN(Cc2ccc(NC(=O)c3ccc(C)c(/C=C/c4cnc(Nc5cc(N6CCNCC6)nc(C)n5)cn4)c3)cc2C(F)(F)F)CC1 | 100
COc1cc(N2CCC(N3CCN(C)CC3)CC2)ccc1Nc1ncc(Cl)c(Nc2ccccc2S(=O)(=O)C(C)C)n1 | 0.8
CCOc1cc(N2CCC(N3CCCCC3)CC2)ccc1Nc1nc(Nc2ccccc2S(=O)(=O)C(C)C)c2cn[nH]c2n1 | 7

Target: CAMKK2 (human) (UniProt Q96RR4)
Assay: KINOMEscan competition binding
Settings: compound 10.0 µM

Chain of CAMKK2 (human) (Q96RR4 whole entry, looked up): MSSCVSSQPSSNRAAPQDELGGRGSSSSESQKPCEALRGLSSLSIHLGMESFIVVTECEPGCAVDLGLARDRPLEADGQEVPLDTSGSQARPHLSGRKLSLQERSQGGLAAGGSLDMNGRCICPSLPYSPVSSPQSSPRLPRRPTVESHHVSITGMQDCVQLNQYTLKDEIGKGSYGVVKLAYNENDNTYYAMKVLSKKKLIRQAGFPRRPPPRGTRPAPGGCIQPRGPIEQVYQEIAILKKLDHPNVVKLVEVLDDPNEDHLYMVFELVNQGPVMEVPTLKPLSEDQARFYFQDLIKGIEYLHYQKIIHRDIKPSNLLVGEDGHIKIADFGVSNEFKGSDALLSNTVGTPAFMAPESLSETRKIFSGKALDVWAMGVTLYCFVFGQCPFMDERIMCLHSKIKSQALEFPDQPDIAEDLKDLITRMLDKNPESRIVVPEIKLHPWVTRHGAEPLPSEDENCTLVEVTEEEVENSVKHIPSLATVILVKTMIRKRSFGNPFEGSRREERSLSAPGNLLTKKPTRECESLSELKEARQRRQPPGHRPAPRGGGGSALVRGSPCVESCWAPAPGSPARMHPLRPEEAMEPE

SMILES | kinase still bound, per cent of control [%]
CCN1CCN(Cc2ccc(NC(=O)c3ccc(C)c(/C=C/c4cnc(Nc5cc(N6CCNCC6)nc(C)n5)cn4)c3)cc2C(F)(F)F)CC1 | 95
COc1cc(N2CCC(N3CCN(C)CC3)CC2)ccc1Nc1ncc(Cl)c(Nc2ccccc2S(=O)(=O)C(C)C)n1 | 0.1
CCOc1cc(N2CCC(N3CCCCC3)CC2)ccc1Nc1nc(Nc2ccccc2S(=O)(=O)C(C)C)c2cn[nH]c2n1 | 46
CCN1CCN(Cc2ccc(NC(=O)c3ccc(C)c(Oc4ccnc5[nH]ccc45)c3)cc2C(F)(F)F)CC1 | 28

Target: STK32B (human) (UniProt Q9NY57)
Assay: KINOMEscan competition binding
Settings: compound 10.0 µM

SMILES | kinase still bound, per cent of control [%]
CCN1CCN(Cc2ccc(NC(=O)c3ccc(C)c(/C=C/c4cnc(Nc5cc(N6CCNCC6)nc(C)n5)cn4)c3)cc2C(F)(F)F)CC1 | 100
